This is an account of results in patent US5230998A, “Method for the prescreening of drugs targeted to the V3 hypervariable loop of the HIV-1 envelope glycoprotein gp 120” (priority 1991, dated 1993).

For test [1], the target named is T1, HIV-1 gp120 V3 hypervariable loop (Human immunodeficiency virus type 1 group M subtype B, UniProt P03375). On Inhibitory activity: key: Chemicals with inhibitory activity are indicated by +.
T1 construct: Polystyrene plates coated with recombinant gp120 and gp160, respectively; purchased American Bio-Technologies, Inc., Cambridge, Mass; host or cells: baculovirus expression system
Nature of the test: biochemical. The note with it: for Inhibitory activity: Table 1, reaction between HIV-1 gp120 and anti-V3 loop antibodies; for inhibition at 50 µg/mL: read-out: percentage of inhibition. In kind it is binding. As for the experimental part: Wells of 96 well polystyrene plates (Immulon 2, Dynatech Laboratories, Inc., Chantilly, Va.) were coated with synthetic peptides (200 μl; 20μg/ml in 0.1 M Tris-HCl, pH 8.8) overnight at 20° C. The peptides were from the sequence of HIV-1, clone BH 10 envelope glycoproteins gp120 and gp41 (Neurath, A. R., Strick, N., and Lee, E. Y. S. (1990), "B-cell Epitope Mapping of Human Immunodeficiency virus (HIV-1) Envelope Glycoprotein with Long (19 to 36-residue) Synthetic Peptides", J. Gen. Virol., 71., 85-95) and from V3 hypervariable loops of 21 distinct HIV-1 isolates (clones) Neurath, A. R., and Strick, N., (1990), "Confronting the Hypervariability of an Immunodominant Epitope Eliciting Virus Neutralizing Antibodies from the Envelope Glycoprotein of the Human Immunodeficiency Virus Type 1 (HIV-1)", Molec. Immunol., 27, 539-549. The latter peptides corresponded to full-length V3 loops generated by disulfide bonds between N- and C- terminal cysteine residues. After washing with 0.14 M NaCl, 0.01 M Tris, 0.02% NaN3 (TS), the wells were postcoated with a mixture of bovine serum albumin (BSA) and gelatine (10 and 2.5 mg/ml, respectively) in TS. BSA was omitted from the postcoating solution for RIA tests in which antibodies to ATA were used. Polystyrene plates coated with recombinant gp120 and gp160, respectively, (500 ng/well; from American Bio-Technologies, Inc., Cambridge, Mass. and MicroGeneSys, Inc., West Haven, Conn., respectively) were also used for RIA and ELISA tests.
To define sites on gp120/gp41 reacting with ATA, the inhibitory effect of this compound was studied by RIA tests using gp120- and gp160-coated wells, respectively, and antisera (final dilutions 1:150) against synthetic peptides from the entire sequence of gp120/gp41 of HIV-1 BH 10. The preparation and biological properties of these antisera were described elsewhere (Neurath et al., (1990), J. Gen. Virol., 71, 85-95). Each of the antisera was diluted in a mixture of fetal bovine serum and goat serum (9:1) containing 0.1% Tween 20, adjusted to pH 8. ATA (final concentration 50 μg/ml) was added in one set of assays, but was omitted from a parallel set. After incubation overnight at 25° C., the plates were washed with TS. Attached rabbit IgG was detected using ^125 I-labeled anti-rabbit IgG, as described before (Neurath et al., 1990, J. Gen. Virol., 71, 85-95). Similarly, the inhibitory effect of ATA on the reaction of peptides derived from gp120/gp41 and of peptides derived from V3 hypervariable loops from gp120 of distinct HIV-1 isolates with the respective homologous anti-peptide antisera was studied. In the latter case, antisera were diluted 1:1,000 for the assays.
The inhibitory effect of ATA and of other compounds on the reaction between antibodies with predetermined specificity and gp120 (or synthetic peptides derived from it) was determined from the formula: [formula] An analogous formula was used to calculate the percentage of inhibition from optical density readings resulting from ELISA tests.
Chemicals other than ATA were screened for inhibitory activity essentially as described above. […] Chemicals with inhibitory activity established by the respective immunoassays were screened further for antiviral activity.
Commercially available ATA is a mixture of monomers and polymers of distinct molecular masses (Gonzalez et al., (1979) Biochem. Biophys. Acta, 562, 534-545); Cushman et al., (1991), J. Chem., 34, 329-337). The monomers [molecular mass (M.W.)=422.4 daltons] were separated from the polymers. ATA (20 mg/ml in the form of free acid neutralized with 0.4 M NaOH) was dialyzed against H2 O in a dialysis membrane with a molecular mass cutoff of 500 daltons.

A further test deals with HIV-1. Description: Antiviral activity: inhibition of P24 production in MT-2 cells. In kind it is cell-based, HIV-1 IIIB. Further details: inhibition: dose or concentration left out as unconfirmed. The note with it: Human immunodeficiency virus 1, MT2, Table 1; for EC50: read-out: EC50 (concentration at which the production of P24 was reduced to 50% of that detected in control cultures); for inhibition: read-out: percentage of inhibition of P24 nucleoprotein production. As for the experimental part: All chemicals were tested at serial two-fold dilutions (1.25-80 μg/ml, prepared from a stock solution containing 10 mg/ml in dimethylsulfoxide). The chemicals were obtained from Aldrich, Milwaukee, Wis. or were synthesized. Their inhibitory activity was determined by two distinct methods, based on inhibition of synthesis of core protein P24 and on protection by the chemicals of cells against the cytopathic effect of HIV-1 (colorimetric method) respectively.
The chemicals were serially diluted in RPMI 1640 medium without phenol red (GIBCO, Grand Island, N.Y.) containing 10% fetal calf serum (FCS). Aliquots of the diluted solutions were added to wells of 96 well plates and mixed with an equal volume of diluted HIV-1 [multiplicity of infection (MOI) =0.0045]. After incubation for 1 hour at 37° C., 25 μl of polybrene (1 μg/ml) treated MT-2 cells (Harada, S., Koyanagi, Y., Yamamoto, N., (1985), "Infection of HTLV-III/LAV in HTLV-I-carrying Cells MT-2 and MT-4 and Application in a Plaque Assay", Science, 229, 563-566), (5,000 cells/well) were added. The mixture was incubated for 1 hour at 37° C. and the volume was adjusted with RPMI 1640 medium with 10% FCS to 200 μl. On the fourth day after incubation at 37° C., 100 μl of culture supernatants were collected from each well and equal volumes of fresh medium were added to the wells. The supernatants were assayed for P24 using a kit from Coulter Immunology (Hialeah, Fla.). On the sixth day, an indicator XTT tetrazolium dye (1 mg/ml; 50 μl/well; PolySciences, Inc., Warrington, Penna.) was added to the cells. After 4 hours, intracellular formazan was determined colorimetrically at 450 nm.
^c Chemicals with inhibitory activity in ELISA (RIA) tests were teste
^d EC50 = concentration at which the production of P24 was […]

In brackets after ≈: the same amount, converted by molar mass.

For orientation: inhibition means the change of the read-out against control, counted positive when it falls. As for `O=C(O)CNC(c1ccccc1)(c1ccccc1)c1ccccc1` [compound 108], in test [1], the Inhibitory activity entry is “+” and the inhibition at 50 µg/mL was determined as 33.5%.
`O=C(O)C1=CC(I)=CC(=C(c2cc(I)cc(C(=O)O)c2O)c2cc(I)cc(C(=O)O)c2O)C1=O` [compound 131]: in test [1], the Inhibitory activity result is “+” and the inhibition at 50 µg/mL was determined as 74.8%. In the test on HIV-1, the EC50 came to 71 µg/mL (≈ 88.7 µM) and the inhibition is 41%.
The corresponding values for `CC(C)C[C@H](NC(=O)[C@H](C)NC(=O)[C@H](CC(C)C)NC(c1ccccc1)(c1ccccc1)c1ccccc1)C(=O)O` [compound 114] are “+”, 62.1%, over 80 µg/mL and 14%.
Turning to `O=C(O)C1=CC(=C(c2ccc(O)c(C(=O)O)c2)c2ccc(O)c(C(=O)O)c2)C=CC1=O` [compound 122], the Inhibitory activity result in test [1] is recorded as “+”. In the test with HIV-1, the EC50 was 12 µg/mL (≈ 28.4 µM) and the inhibition turned out to be 83%.
Consider `O=Cc1ccc(-c2ccccc2)cc1` [compound 93], for which, in test [1], the Inhibitory activity entry is listed as “+” and the inhibition at 50 µg/mL came out at 21%. In the test with HIV-1, the EC50 is over 80 µg/mL and the inhibition was found to be 32%.
In the case of `O=C(O)CC(c1ccccc1)(c1ccccc1)c1ccccc1` [compound 2], in test [1], the Inhibitory activity result was “+” and the inhibition at 50 µg/mL amounted to 27%.
With `CC(=O)C1=CC(=C(c2ccc(O)c(C(C)=O)c2)c2ccc(O)c(C(C)=O)c2)C=CC1=O` [compound 140], in test [1], the Inhibitory activity result is listed as “+” and the inhibition at 50 µg/mL is 69.4%.
For `C1=Cc2nc1c(-c1ccncc1)c1ccc([nH]1)c(-c1ccncc1)c1nc(c(-c3ccncc3)c3ccc([nH]3)c2-c2ccncc2)C=C1` [compound 161], in test [1], the Inhibitory activity entry is recorded as “+” and the inhibition at 50 µg/mL came to 66.4%. Further, in the test with HIV-1, the EC50 was over 80 µg/mL and the inhibition is 0%.
With `O=C(O)CCC1=C(CC(=O)O)c2cc3[nH]c(cc4nc(cc5[nH]c(cc1n2)c(CCC(=O)O)c5CC(=O)O)C(CC(=O)O)=C4CCC(=O)O)c(CC(=O)O)c3CCC(=O)O` [compound 164], in test [1], the Inhibitory activity result is recorded as “+” and the inhibition at 50 µg/mL was found to be 45%. In the test on HIV-1, the EC50 turned out to be 2.3 µg/mL (≈ 2.77 µM) and the inhibition was found to be 100%.
Take `CC1=C(C(=O)O)C(=O)C(C(C)(C)C)=CC1=C(c1cc(C(C)(C)C)c(O)c(C(=O)O)c1C)c1cc(C(C)(C)C)c(O)c(C(=O)O)c1C` [compound 130]: in test [1], the Inhibitory activity result is “+” and the inhibition at 50 µg/mL came out at 38.6%. For the same compound, in the test on HIV-1, the EC50 turned out to be 80 µg/mL (≈ 126 µM) and the inhibition was 38%.
The corresponding values for `O=c1cc2oc3cc(O)c(O)cc3c(-c3ccccc3)c-2cc1O` [compound 128] are “+”, 58.6%, 27 µg/mL (≈ 84.3 µM) and 85%.
The corresponding values for `O=C(O)COc1cc2oc3cc(=O)c(OCC(=O)O)cc-3c(-c3ccccc3)c2cc1OCC(=O)O` [compound 129] are “+”, 56.8%, 15 µg/mL (≈ 30.3 µM) and 88%.
Taken in the same sequence, the figures for `Nc1ccc2c3c(cccc13)-c1ccccc1-2` [compound 65] were “+”, 27.4%, 3 µg/mL (≈ 13.8 µM) and 100%.
As to `C=CC1=C(C)c2cc3[nH]c(cc4nc(cc5[nH]c(cc1n2)c(C)c5C=C)C(C)=C4CCC(=O)O)c(CCC(=O)O)c3C` [compound 158], in test [1], the Inhibitory activity entry is on record as “+” and the inhibition at 50 µg/mL came out at 55.8%. Also, in the test with HIV-1, the EC50 was determined as 1 µg/mL (≈ 1.78 µM) and the inhibition was 100%.
Taken in the same sequence, the figures for `C=CC1=C(C)c2cc3[nH]c(cc4nc(cc5[nH]c(cc1n2)c(C)c5CO)C(C)=C4CCC(=O)O)c(CCC(=O)O)c3C` [compound 152] were “+”, 82.6%, 3 µg/mL (≈ 5.29 µM) and 100%.
The corresponding values for `c1cnc2c(c1)CCCCCCCCCC2` [compound 67] are “+”, 36.8%, 37 µg/mL (≈ 170 µM) and 53%.
The corresponding values for `CC1=C(CCC(=O)O)c2cc3[nH]c(cc4nc(cc5[nH]c(cc1n2)c(C(O)CO)c5C)C(C(O)CO)=C4C)c(C)c3CCC(=O)O` (centres unmarked) [compound 150] are “+”, 43.3%, 38.2 µg/mL (≈ 60.6 µM) and 99%.
Consider `Nc1ccc2c(c1)Cc1cc(Br)ccc1-2` [compound 63], for which, in test [1], the Inhibitory activity entry is listed as “+” and the inhibition at 50 µg/mL turned out to be 37.1%. Also, in the test on HIV-1, the EC50 came out at 68 µg/mL (≈ 261 µM) and the inhibition is 19%.
Regarding `c1ccc(CNc2ccccc2)cc1` [compound 42], in test [1], the Inhibitory activity result is reported as “+” and the inhibition at 50 µg/mL was determined as 28.8%.
In the case of `O=C(O)c1ccc(-c2c3nc(c(-c4ccc(C(=O)O)cc4)c4ccc([nH]4)c(-c4ccc(C(=O)O)cc4)c4nc(c(-c5ccc(C(=O)O)cc5)c5ccc2[nH]5)C=C4)C=C3)cc1` [compound 160], in test [1], the Inhibitory activity entry is on record as “+” and the inhibition at 50 µg/mL stood at 84.3%. Also, in the test on HIV-1, the EC50 was 1.3 µg/mL (≈ 1.64 µM) and the inhibition turned out to be 100%.
Consider `Nc1ccccc1-c1ccccc1` [compound 50], for which, in test [1], the Inhibitory activity entry is given as “+” and the inhibition at 50 µg/mL came out at 70.5%.
For the compound `O=C(O)CCC1=C(CC(=O)O)c2cc3[nH]c(cc4nc(cc5[nH]c(cc1n2)c(CC(=O)O)c5CCC(=O)O)C(CC(=O)O)=C4CCC(=O)O)c(CC(=O)O)c3CCC(=O)O` [compound 163], in test [1], the Inhibitory activity entry is recorded as “+” and the inhibition at 50 µg/mL stood at 41.1%. For the same compound, in the test on HIV-1, the EC50 is 9.8 µg/mL (≈ 11.8 µM) and the inhibition came to 99%.
